Data taken from patent publication US5919769A, “Fucose derivatives, drugs containing the same as active ingredient, and intermediates for producing the same” (Kanebo, Ltd, priority 1995, dated 1999).

Assays:
[1] = Inhibitory effects on ear swelling (ovalbumin-sensitized mice); assay type: in vivo, Female BALB/c mice; conditions: tail vein at 2, 5 and 8 hours, 24 hours after induction
Protocol: Inhibitory effects on ear swelling:
(§1) Female BALB/c mice (6-weeks old) were sensitized by intraperitoneal injection of saline (0.5 ml) containing ovalbumin ([…]) and aluminum hydroxide gel (4 mg). Two weeks after the sensitization, a 1 mg/ml solution of ovalbumin in phosphate buffered saline (10 μl) was subcutaneously injected to the mice at both of the ears to induce the inflammatory response. In the non-inflammation group, phosphate buffered saline was subcutaneously injected to the sensitized mice instead.
(§2) The test compound was dissolved in 0.01N-NaOH-saline so as to be a concentration of 1 mg/ml, and the solution was diluted with saline. The test compound solution thus prepared was injected to the mice at the tail vein, at 2, 5 and 8 hours after the induction of inflammatory response, in a dosage volume of 0.1 ml/10 g of body weight (the treated group). In the control group, saline only was injected to the mice.
Twenty-four hours after the induction of inflammatory response, both of the ears were cut to collect a piece of 6 mm diameter, and the weight thereof was measured. The ear weight per area was used as an index for ear swelling. The inhibitory rate on ear swelling was calculated by the following equation. [formula] Wexp: Average ear weight in the treated group Wnega: Average ear weight in the non-inflammation group
Wcont: Average ear weight in the control group

[2] = Oral toxicity observation in mice; assay type: in vivo; conditions: 1000 mg/kg orally, observed for one week
Description: Moreover, the compound (I) of the present invention or a salt thereof show low toxicity. […] Therefore, the compound (I) of the present invention or a salt thereof is useful as a medicament.

[3] = target: L-selectin; experiment: Inhibitory test on the binding of L-selectin to sialyl Le^X (selectin-IgG chimera); conditions: inhibition of L-selectin IgG chimera binding to sialyl Le^X-pentaceramide
Protocol: (§3) The experiment was carried out according to the method using selectin-IgG chimera, which was reported by Foxall, C. et al. (J. Cell Biol., 117, 895-902 (1992)).
(§4) Sialyl Le^X -pentaceramide was dissolved in 50% methanol in distilled water, and the solution was put into a 96-well plate in an amount of 100 pmol/well. The plate was allowed to stand at room temperature overnight, and the solvent therein was evaporated. The plate was washed with distilled water, and subjected to blocking with 50 mM imidazole buffer (pH 7.2) containing 5% BSA (bovine serum albumin) and 1 mM calcium chloride at room temperature for one hour.
(§5) Separately, to 500-fold diluted solution of each biotinylated anti-human IgG Fc and streptavidin-alkaline phosphatase conjugate with a 50 mM imidazole buffer (pH 7.2) containing 1% BSA and 1 mM calcium chloride, P-selectin IgG chimera was added to give a final concentration of 40 μg/ml, and the mixture was incubated at room temperature for 30 minutes to give the complex solution.
(§6) A test compound was dissolved in DMSO (except that the test compound h was dissolved in distilled water) to give 10 mM aqueous solution thereof, which was serially diluted with 50 mM imidazole buffer (pH 7.2) containing 1% BSA and 1 mM calcium chloride to give the solutions in 8 various concentrations (two-fold serial dilution from 20 μM). The test compound solution in each concentration and the above complex solution were mixed in equal volume, and the mixture was incubated at room temperature for 30 minutes to give the reaction solution.
(§7) After the blocking was completed, the blocking solution in the above plate was discarded, and the plate was washed with 50 mM imidazole buffer (pH 7.2), and thereto was added the above reaction solution in an amount of 50 μl/well. The plate was incubated at 37° C. for 45 minutes, and then washed three times with 50 mM imidazole buffer (pH 7.2) and washed three times with distilled water. 1M diethanolamine (pH 9.8) containing 0.01% magnesium chloride and 1 mg/ml p-nitrophenyl phosphate was put into each well in an amount of 50 μl/well, and the plate was allowed to stand for 1 to 2 hours for color development. The absorbance at 405 nm was measured, and the binding rate (%) was calculated by the following equation, based on the absorbance (X) of the wells containing a test compound at various concentrations and the absorbance (A) of the wells containing no test compound.
(§8) IC50 was evaluated by probit method from the binding rate.
Inhibitory test on the binding of L-selectin to sialyl Le^X :
The same procedures of Experiment 1 were repeated except that L-selectin IgG chimera (40 μg/ml) was used instead of P-selectin IgG chimera (40 μg/ml).

[4] = system: cell infiltration; experiment: Inhibitory effects on the peritoneal inflammation induced by thioglycollate (cell infiltration, MPO activity); assay type: in vivo, Male BALB/C mice; conditions: 10 mg/kg, tail vein just before and one hour after induction, peritoneal exudate cells
Protocol: Inhibitory effects on the peritoneal inflammation induced by thioglycollate:
Male BALB/C mice (11-weeks old) were peritoneally injected with 3% thioglycollate medium (1 ml) to induce the inflammation. In the non-inflammation group, saline was peritoneally injected to the mice. Two hours thereafter, the mice were killed with […], and the peritoneal cavity was washed with a phosphate buffered saline containing 0.1% BSA, 0.5 mM EDTA, 10 U/ml heparin to collect the exudate cells. The red blood cells were lysed, and the exudate cells were lysed in 50 mM potassium phosphate buffer containing 0.5% hexadecyltrimethylammonium bromide. The MPO activity in the supernatant was measured according to the Bradley's method (see the above reference).
The test compound was dissolved in 0.0012M arginine-containing saline solution so as to be a concentration of 1 mg/ml. The test compound solution was injected to the mice at the tail vein in a dosage volume of 0.1 ml/10 g of the body weight, at just before and one hour after the induction of inflammation response (the treated group). In the control group, saline solution was injected to the mice.
The cell infiltration inhibitory rate was calculated in the same manner as in Experiment 4, by the equation 3.

[5] = system: cell infiltration; experiment: Inhibitory effects on cell infiltration (MPO activity in ear tissue of Experiment 3); assay type: in vivo, Female BALB/c mice; conditions: tail vein at 2, 5 and 8 hours
Protocol: as §1, §2
Inhibitory effects on cell infiltration:
According to the report by Bradley, P. P. et al, (cf., Journal of Investigative Dermatology, 78, 206-209 (1982)), the activity of myeloperoxidase (hereinafter, referred to as MPO) in the tissue was used as an index for cell infiltration.
The ear tissue, the weight of which was measured in Experiment 3, was homogenized, and centrifuged. The MPO activity in the supernatant was measured by using the absorbance at 450 nm (hereinafter, referred to as OD) of o-dianisidine as an index, according to the method of Bradley, et al. (see the above reference).
The inhibitory rate on cell infiltration was calculated by the following equation. [formula] ODexp: Average OD in the treated group ODnega: Average OD in the non-inflammatory group
ODcont: Average OD in the control group

[6] = target: P-selectin; experiment: Inhibitory test on the binding of P-selectin to sialyl Le^X (selectin-IgG chimera); conditions: inhibition of P-selectin IgG chimera binding to sialyl Le^X-pentaceramide
Protocol: Inhibitory test on the binding of P-selectin to sialyl Le^X :
as §3, §4, §5, §6, §7, §8

Compound | IC50 [3] [nM] | IC50 [6] [nM] | also measured
CCCCCCCCCCCCCCC(CCCCCCCCCCCCCC)C(=O)N[C@H](CO[C@@H]1O[C@H]([C@H](C)O)[C@@H](O)[C@@H]1O)C(=O)N[C@@H](CCC(=O)O)C(=O)NC [compound c, [N-(2-tetradecylhexadecanoyl)-O-(α-L-fucofuranosyl)-D-seryl]-L-glutamic acid 1-methylamide] | 500 | 300 | Ear swelling inhibitory rate ([1]; 0.1 mg/kg): 45%; Ear swelling inhibitory rate ([1]; 1 mg/kg): 59%; Ear swelling inhibitory rate ([1]; 10 mg/kg): 86%; change observed after oral administration [2]: no significant change was observed; Cell infiltration inhibitory rate [4]: 64%; Cell infiltration inhibitory rate ([5]; 0.1 mg/kg): 19%; Cell infiltration inhibitory rate ([5]; 1 mg/kg): 34%; Cell infiltration inhibitory rate ([5]; 10 mg/kg): 64%
CCCCCCCCCCCCCCC(CCCCCCCCCCCCCC)C(=O)N[C@H](CO[C@@H]1O[C@@H](C)[C@@H](O)[C@@H](O)[C@@H]1O)C(=O)N[C@@H](CCC(=O)O)C(=O)NC [compound k, [N-(2-tetradecylhexadecanoyl)-O-(α-L-fucopyranosyl)-D-seryl]-L-glutamic acid 1-methylamide] | 9400 | 700 | Cell infiltration inhibitory rate [4]: 37%
CCCCCCCCCCCCCCC(CCCCCCCCCCCCCC)C(=O)N[C@H](CO[C@@H]1O[C@@H](C)[C@@H](O)[C@@H](O)[C@@H]1O)C(=O)N[C@H](CCC(=O)O)C(=O)NC [compound l, [N-(2-tetradecylhexadecanoyl)-O-(α-L-fucopyranosyl)-D-seryl]-D-glutamic acid 1-methylamide] | 18000 | 2100 | 
CCCCCCCCCCCCCCC(CCCCCCCCCCCCCC)C(=O)N[C@@H](CO[C@H]1O[C@@H](C)[C@@H](O)[C@@H](O)[C@@H]1O)C(=O)N[C@@H](CCC(=O)O)C(=O)NC [compound m, [N-(2-tetradecylhexadecanoyl)-O-(β-L-fucopyranosyl)-L-seryl]-L-glutamic acid 1-methylamide] | 800 | 600 | 
CCCCCCCCCCCCCCC(CCCCCCCCCCCCCC)C(=O)N[C@@H](CO[C@H]1O[C@@H](C)[C@@H](O)[C@@H](O)[C@@H]1O)C(=O)N[C@H](CCC(=O)O)C(=O)NC [compound n, [N-(2-tetradecylhexadecanoyl)-O-(β-L-fucopyranosyl)-L-seryl]-D-glutamic acid 1-methylamide] | 800 | 300 | 
CCCCCCCCCCCCCCC(CCCCCCCCCCCCCC)C(=O)N[C@H](CO[C@H]1O[C@@H](C)[C@@H](O)[C@@H](O)[C@@H]1O)C(=O)N[C@@H](CCC(=O)O)C(=O)NC [compound o, [N-(2-tetradecylhexadecanoyl)-O-(β-L-fucopyranosyl)-D-seryl]-L-glutamic acid 1-methylamide] | 1600 | 300 | 
CCCCCCCCCCCCCCC(CCCCCCCCCCCCCC)C(=O)N[C@H](CO[C@H]1O[C@@H](C)[C@@H](O)[C@@H](O)[C@@H]1O)C(=O)N[C@H](CCC(=O)O)C(=O)NC [compound p, [N-(2-tetradecylhexadecanoyl)-O-(β-L-fucopyranosyl)-D-seryl]-D-glutamic acid 1-methylamide] | 700 | 300 | 
CCCCCCCCCCCCCCC(CCCCCCCCCCCCCC)C(=O)N[C@@H](CS[C@@H]1O[C@@H](C)[C@@H](O)[C@@H](O)[C@@H]1O)C(=O)N[C@@H](CCC(=O)O)C(=O)NC [compound q, [N-(2-tetradecylhexadecanoyl)-S-(α-L-fucopyranosyl)-L-cysteinyl]-L-glutamic acid 1-methylamide] | 200 | 100 | 
CCCCCCCCCCCCCCC(CCCCCCCCCCCCCC)C(=O)N[C@@H](CS[C@@H]1O[C@@H](C)[C@@H](O)[C@@H](O)[C@@H]1O)C(=O)N[C@H](CCC(=O)O)C(=O)NC [compound r, [N-(2-tetradecylhexadecanoyl)-S-(α-L-fucopyranosyl)-L-cysteinyl]-D-glutamic acid 1-methylamide] | 700 | 200 | 
CCCCCCCCCCCCCCC(CCCCCCCCCCCCCC)C(=O)N[C@H](CS[C@@H]1O[C@@H](C)[C@@H](O)[C@@H](O)[C@@H]1O)C(=O)N[C@@H](CCC(=O)O)C(=O)NC [compound s, [N-(2-tetradecylhexadecanoyl)-S-(α-L-fucopyranosyl)-D-cysteinyl]-L-glutamic acid 1-methylamide] | 100 | 100 | 
CCCCCCCCCCCCCCC(CCCCCCCCCCCCCC)C(=O)N[C@H](CS[C@@H]1O[C@@H](C)[C@@H](O)[C@@H](O)[C@@H]1O)C(=O)N[C@H](CCC(=O)O)C(=O)NC [compound t, [N-(2-tetradecylhexadecanoyl)-S-(α-L-fucopyranosyl)-D-cysteinyl]-D-glutamic acid 1-methylamide] | 600 | 300 | 
CCCCCCCCCCCCCCC(CCCCCCCCCCCCCC)C(=O)N[C@@H](CS[C@H]1O[C@@H](C)[C@@H](O)[C@@H](O)[C@@H]1O)C(=O)N[C@H](CCC(=O)O)C(=O)NC [compound u, [N-(2-tetradecylhexadecanoyl)-S-(β-L-fucopyranosyl)-L-cysteinyl]-D-glutamic acid 1-methylamide] | 1000 | 1000 | 
